Read-outs that look alike come from different tables or passages of the source.
Legend:
[1] = wild type, from Marom et al. 1995; cited from earlier work
[2] = test system: NIH/3T3 fibroblasts cell line; test: Whole-cell patch clamp of transfected NIH/3T3 cells; format: cell-based, Mouse; details: stably transfected NIH/3T3 cells; for inactivation character of potassium current: FIG. 7 and FIG. 8; for potassium current amplitude: whole-cell voltage clamp, room temperature
Experimental: Mouse fibroblasts cell line (NIH/3T3, ATCC ACCESSION NO. CRL-6361):
(§1) Voltage clamp assay was used to test the expression and function of the over-expressed channels.
Selection was done using Neomycin sulfate (G418) antibiotic (Gibco Catalog No. 11811-031) which was added to the growth medium ([…]). Clones were isolated using cloning ring and cultured into 24 well plate (corning Catalog No. 3524). For expansion, confluent wells were transferred to six well plates and then to 100 mm culture dish (Corning Catalog No. 430167DMEM-complete+G418 10% FCS was thereafter replaced every 72 to 96 hours.
Total cell protein was extracted from the various clones using 300 μl cold RIPA buffer (with supplements; RIPA lysis buffer, 1× Santa Cruz Biotechnology, Catalog No. 24948) and screened by western blot analysis with rabbit anti-Kv1.3 antibody (CHEMICON, Catalog No. AB5178). Colonies that tested western blot positive were then analyzed by voltage clamp.
(§2) Patch clamp recordings—Voltage-clamp recordings were performed using the whole-cell patch clamp technique. All measurements were done at room temperature. Patch pipettes (2-4 MΩ) were prepared from glass capillary tubes (Jencons Catalog No. 687-055) using a double-stage puller (Narishige pp-830). Currents were recorded with an Axon Instruments amplifier (Axopatch 200), digitized by DigiData 1322A digitizer (Axon instruments). Data was analyzed using pCLAMP software (version 8.0). Bath solution for the whole-cell recordings contained (in mM): 140 NaCl, 3 KCl, 2 CaCl2, 2 MgCl2, 10 Glucose and 10 HEPES (pH 7.4). Pipette solution for the whole-cell recordings (in mM): 140 KCl, 10 Na2 ATP, 1 CaCl2, 1 MgCl2, 10 EGTA and 5 HEPES (pH 7.4). Currents were elicited by 200 ms pulses from holding potential of −80 mV to −90 mv and then to 110 mV in increments of 20 mV.

Human dermal fibroblasts = test: Whole-cell patch clamp of transfected human dermal fibroblasts; format: cell-based; details: for potassium current amplitude: 7-20 days after nucleoporation, 12 cells per construct; for character of potassium current: FIG. 9 and FIG. 10
Source text: as §1
The protocol is using Collagenase type 1 (Worthington Biochemical Corp., Lakewood, N.J., cat. LS004196, lot.X4J7447) for extractions of cells from a tissue. Primary cultures were generated by seeding in flasks with growth Medium: DMEM+HEPES (ADCF) with phenol red (HyClone part no SH3A1534.01, Lot no ANM20173 custom made for biogenics, L.T.D). Medium was supplemented with 10% FBS defined (HyClone; Cat no: SH30072.03; Lot no: APD21173); ITS+1 liquid media supplement (sigma # I-2521); Gentamycin 50 μg ml (Beit ha'emek; cat no#03-035-1) and Amphotericin B 2.5 μg ml (Beit ha'emek; Catalog No. 03-029-1).
Five days prior to transfection, cells were seeded in 150 cm^2 flasks. Medium was changed every 3 days. Cells reached 90% confluence in the day of the transfection.
For expression of the wt and mutation constructs in human dermal fibroblasts, Amaxa Nucleofector (Amaxa biosystem) and Human Dermal Fibroblast (NHDF) Nucleofector kit (Catalog No. VPD-1001) were used. Nucleofection was done according to the protocol of the manufacturer. Cells from passage 1-5 were used. The expression was characterized using fluorescent microscopy and the patch clamp technique. Seven days after nucleofection patch clamp analysis were performed.
as §2

[3] = Transition rate of the channel from open to inactivation; details: H399W mutant

Row | Molecule | transition rate from open to inactivation [1] | inactivation character of potassium current [2] | potassium current amplitude [2] | potassium current amplitude (Human dermal fibroblasts) | character of potassium current (Human dermal fibroblasts) | transition rate from open to inactivation [3]
1 | wild type Kv1.3: wild type human Kv1.3 voltage-gated potassium channel (SEQ ID NO: 4, GenBank AAC31761, KCNA3) | 0.0074 | slowly inactivated | 200-1500 pA | 600-2500 pA | typical potassium | –
2 | H399W: human Kv1.3 channel mutated to express tryptophan at position 399 instead of histidine (SEQ ID NO: 2), expressed from pIRES2-EGFP (protein, A recombinant polypeptide having the H399W mutation) MTVVPGDHLLEPEVADGGGAPPQGGCGGGGCDRYEPLPPSLPAAGEQDCCGERVVINISGLRFETQLKTLCQFPETLLGDPKRRMRYFDPLRNEYFFDRNRPSFDAILYYYQSGGRIRRPVNVPIDIFSEEIRFYQLGEEAMEKFREDEGFLREEERPLPRRDFQRQVWLLFEYPESSGPARGIAIVSVLVILISIVIFCLETLPEFRDEKDYPASTSQDSFEAAGNSTSGSRAGASSFSDPFFVVETLCIIWFSFELLVRFFACPSKATFSRNIMNLIDIVAIIPYFITLGTELAERQGNGQQAMSLAILRVIRLVRVFRIFKLSRHSKGLQILGQTLKASMRELGLLIFFLFIGVILFSSAVYFAEADDPTSGFSSIPDAFWWAVVTMTTVGNSYGDMWPVTIGGKIVGSLCAIAGVLTIALPVPVIVSNFNYFYHRETEGEEQSQYMHVGSCQHLSSSAEELRKARSNSTLSKSEYMVIEEGGMNHSAFPQTPFKTGNSTATCTTNN | – | fast inactivated | 150-1800 pA | 400-1200 pA | fast inactivated | 0.025

— patent US8101736B2, “Polynucleotides and polypeptide of human KV1.3, compositions comprising same and methods of using same” (GeneGrafts Ltd., priority 2005, dated 2012)
